Source: paper PMC9896003, “Discovery of a novel, liver-targeted thyroid hormone receptor-β agonist, CS271011, in the treatment of lipid metabolism disorders” (Frontiers in Endocrinology, 2023)
Like-named read-outs stand apart in the source and are kept apart here.

How the values were obtained:
HMC = assay: Cell viability in kidney cell line HMC; format: cell-based
DIO mice [1] = assay: DIO mouse study: liver histology (H&E, Oil Red O, NAFLD activity score); format: in vivo, C57BL/6J mice; conditions: 3 mg/kg, 10 weeks
Experimental: (§1) All animal experiments were performed at Chipscreen Biosciences (Shenzhen, China) according to the National Research Council’s Guide for the Care and Use of Laboratory Animals and the Regulations of Experimental Animal Administration issued by the State Committee of Science and Technology of China and approved by Shenzhen Peking University - The Hong Kong University of Science and Technology Medical Center’s Ethics Committee for the Welfare of Laboratory Animals (approval no. 2022-988). Forty C57BL/6J mice (4-5 weeks, male) were received and raised under a standard 12-hour light/dark cycle (lights off at 7:00 pm). Thirty-five mice were fed a fat-rich diet (SYSE Bio-tech, D12492i; 60% of kcal from fat; Changzhou, China), and the other five mice were fed a control diet (Guangdong Medical Laboratory Animal Center, Foshan, China) ad libitum for 12 weeks. […] The mice from Group 2 to Group 5 were fed a high-fat diet. Treatments started on the thirteenth week and lasted 10 weeks, in which Groups 1 and 2 received solvent (0.2% CMC-Na), and the other groups were administered corresponding compounds orally once daily (the volume of solvent was 5 ml/kg). Body weight and food intake were measured once daily during treatment. All mice were sacrificed after treatment, and blood, hearts, and livers were collected for further validation.
After the animals were sacrificed, the left hepatic lobe was collected (approximately 100–200 mg) and fixed in 4% paraformaldehyde overnight. The liver tissue was sectioned at a thickness of 5 μm after being paraffin-embedded. Liver sections were stained with haematoxylin and eosin (H&E), and the NAFLD activity scores were determined based on the steatosis, lobular inflammation, and hepatocyte ballooning degeneration in accordance with the standard proposed by Kleiner ([17]).
To analyse the content of lipids in the liver, Oil Red O (ORO) staining of isobutyl alcohol-frozen liver sections was conducted by Wuhan Servicebio Technology Co., Ltd. (Wuhan, China). Each positive region of ORO staining was quantified for each sample using Imangepro plus 6.0 software ([…]).

DIO mice [2] = assay: RT-PCR of myocardial energy metabolism gene mGPDH, DIO mice; format: in vivo, C57BL/6J mice
NRK49F = assay: Cell viability in kidney cell line NRK49F; format: cell-based
DIO mice [3] = assay: DIO mouse study: liver TG and TC; format: in vivo, C57BL/6J mice; conditions: 3 mg/kg, 10 weeks
Experimental: as §1, with “Treatments started on the thirteenth week and lasted 10 weeks, in which Groups 1 and 2 received solvent (0.2% CMC-Na), and the other groups were administered corresponding compounds orally once daily (the volume of solvent was 5 ml/kg).” left out
Blood samples were collected from the orbit and placed for 30 min at room temperature and then centrifuged (3500 g, 15 min, 4°C), and the serum was collected for TG, TC, AST, and ALT tests. […]

[4] = DIO mouse study: body weight, food intake, liver and heart weight; format: in vivo; conditions: DIO mice
Experimental: as §1, with “Treatments started on the thirteenth week and lasted 10 weeks, in which Groups 1 and 2 received solvent (0.2% CMC-Na), and the other groups were administered corresponding compounds orally once daily (the volume of solvent was 5 ml/kg).” left out

DIO mice [5] = assay: DIO mouse study: serum biochemical indices; format: in vivo
Experimental: as §1, with “Treatments started on the thirteenth week and lasted 10 weeks, in which Groups 1 and 2 received solvent (0.2% CMC-Na), and the other groups were administered corresponding compounds orally once daily (the volume of solvent was 5 ml/kg).” left out
Blood samples were collected from the orbit and placed for 30 min at room temperature and then centrifuged (3500 g, 15 min, 4°C), and the serum was collected for TG, TC, AST, and ALT tests. For the liver TG and TC tests, the right lobe of the liver was collected and weighed accurately, and then isopropanol and absolute ethanol were added at a ratio of 1:9 (weight/volume) for tissue homogenization on ice. Next, the liver sample was centrifuged (10,000 g and 2500 g, 10 min, at 4°C for liver TG and TC extraction, respectively), and the supernatant was collected for liver TG and TC assays. Tests for TC, ALT and AST were performed following the manufacturer’s instructions.

DIO mice [6] = assay: RT-PCR of hepatic genes, DIO mice; format: in vivo, C57BL/6J mice
Experimental: The total RNA of fresh liver tissue was extracted using TRIzol reagent (Invitrogen, Carlsbad, CA, USA), and RNA quality was measured using a Nanodrop2000 by calculating the 260/280 ratio. Based on the manufacturer’s instructions, we reverse-transcribed 5 μg of isolated RNA with a Transcriptor First Strand cDNA Synthesis Kit (Roche Diagnostics, Mannheim, Germany). Real-time PCR (RT−PCR) was conducted to measure the relative expression of genes by using SYBR Green Master (ROX) dye (Roche Diagnostics, Mannheim, Germany) and the ABI Prism 7000 Sequence Detection System (Applied Biosystems, Foster City, CA, USA). Changes in target mRNA were standardized to β-actin mRNA levels for each sample in triplicate. The 2-^△△Ct method was used to determine the relative mRNA expression levels.

[7] = Tissue distribution study (heart, liver, kidney, blood) by LC-MS/MS; format: in vivo, C57BL/6J mice; conditions: for Concentration, Blood / Concentration, Heart / Kp at 24 h: 24h; for Concentration, Blood / Concentration, Heart: mean; for Kp at 2 h / Kp at 4 h / Kp at 24 h: C57BL/6J, mouse
Experimental: To detect the tissue distribution of drugs, the heart, liver, and kidney of mice in Group 1, Group 2, and Group 3 were collected at 2 hours, 4 hours, and 24 hours, respectively. Then, 1 ml of 1X PBS was added for tissue homogenization. 50 μl tissue homogenate was added to 500 μl of extractant (containing 200 ng/ml methanol). The protein of tissue samples was precipitated by vortex oscillation for 5 min and centrifuged at 13,000 rpm for 10 min, and 150 μL of supernatant was collected and determined by LC−MS/MS procedures.

[8] = Serum pharmacokinetic study, single oral gavage; format: in vivo, C57BL/6J mice; conditions: for AUC(0-inf) / AUC(0-t) / Cmax / Tmax / half-life / MRT last: male, mouse, serum, po, orally once, normal C57BL/6J mice; for MRT last: read-out: MRT(0-t)
Experimental: Then, each group was subdivided into three groups for blood extraction: Group 1, sample collection after 0.5 hours and 2 hours of treatment (n=3); Group 2, sample collection after 1 hour and 4 hours of treatment (n=3); and Group 3, sample collection after 8 hours and 24 hours of treatment (n=3). Approximately 100 μl of blood was collected from the orbit and centrifuged (3500 g, 15 min, 4°C) to extract serum and placed on ice (0°C), and 20 μl of serum was added to 200 μl of extractant (containing 200 ng/ml methanol), which was assessed by liquid chromatography-tandem mass spectrometry (LC−MS/MS) procedures. […]

[9] = 10 weeks oral once daily, CS271011 1 and 3 mg/kg, MGL-3196 3 mg/kg
[10] = 10 weeks of treatment, CS271011 1 and 3 mg/kg, MGL-3196 3 mg/kg
[11] = heart/blood, 10 mg/kg oral, read-out: Ratio (tissue/blood), Heart
[12] = kidney/blood, 10 mg/kg oral, read-out: Ratio (tissue/blood), Kidney
[13] = liver/blood, 10 mg/kg oral, read-out: Ratio (tissue/blood), Liver
[14] = male, heart / blood, 3 mg/kg oral, read-out: Ratio (tissue/blood), Heart
[15] = male, kidney / blood, 3 mg/kg oral, read-out: Ratio (tissue/blood), Kidney
[16] = male, liver / blood, 3 mg/kg oral, read-out: Ratio (tissue/blood), Liver

## CC(C)c1cc(Oc2c(Cl)cc(-n3nc(C#N)c(=O)[nH]c3=O)cc2Cl)n[nH]c1=O [MGL-3196, 2-[3,5-dichloro-4-(5-isopropyl-6-oxo-1,6-dihydropyridazin-3-yloxy)phenyl]-3,5-dio xo-2,3,4,5-tetrahydro[1,2,4]triazine-6-carbonitrile]
HMC
  cell viability: no effect on cell viability
DIO mice [1]
  NAS score: equivalent efficacy
  ORO staining area: decreased
  hepatic ballooning: mitigated hepatic ballooning with a considerable effect
  steatosis score: decreased
DIO mice [2]
  mGPDH expression in the hearts of DIO mice: barely affects
NRK49F
  cell viability: no effect on cell viability
DIO mice [3]
  hepatic TC concentration: markedly reduced
  hepatic TG concentration: markedly reduced
[4]; 10-week drug intervention
  liver weight and LW/BW: dramatically reduced
[4]; [9]
  body weight: dramatic reduction in body weight
  food intake: neither CS271011 nor MGL-3196 impeded food intake
DIO mice [5]; 3 mg/kg, 10 weeks, mean ± SD (DIO control 1.25±0.38)
  Serum TG: 0.59 ± 0.11 mmol/L
DIO mice [5]; 3 mg/kg, 10 weeks, mean ± SD (DIO control 7.79±1.67)
  Serum TC: 3.46 ± 1.61 mmol/L
DIO mice [5]; 10 weeks of treatment
  serum ALT and AST levels: no influence
DIO mice [5]; [10]
  serum TC vs. DIO control: significant reduction
  serum TG vs. DIO control: significant reduction
DIO mice [6]
  hepatic expression of Abcc3: negatively regulated
  hepatic expression of Csad, Slc25a30 and Tff3 (downregulated in DIO mice): rescued
  hepatic expression of Cyp4a10: obviously downregulated
  hepatic expression of Cyp39a1: upregulated
  hepatic expression of Hsd17b6: diminished
  hepatic expression of LDLR, Cyp7a1, Cyp17a1, Srebp2 and Sqle: positively regulated
  hepatic expression of Srebf1: strongly downregulated
[7]; 3 mg/kg and 10 mg/kg oral, especially 2 and 4 hours after administration
  tissue distribution (liver targeting): liver-targeted
[7]; 3 mg/kg oral
  Concentration, Blood: 25.40 ng/g
  Concentration, Heart: 78.08 ng/g
[7]; 10 mg/kg oral
  Concentration, Blood: 42.40 ng/g
  Concentration, Heart: 147.91 ng/g
[7]; [11]
  Kp at 2 h: 0.113
  Kp at 4 h: 0.112
  Kp at 24 h: 3.49
[7]; [12]
  Kp at 2 h: 0.572
  Kp at 4 h: 0.607
  Kp at 24 h: 0.734
[7]; [13]
  Kp at 2 h: 4.59
  Kp at 4 h: 4.63
  Kp at 24 h: 4.8
[7]; [14]
  Kp at 2 h: 0.213
  Kp at 4 h: 0.146
  Kp at 24 h: 3.07
[7]; [15]
  Kp at 2 h: 0.64
  Kp at 4 h: 0.617
  Kp at 24 h: 1.25
[7]; [16]
  Kp at 2 h: 6.59
  Kp at 4 h: 6.17
  Kp at 24 h: 3.17
[8]; 3 mg/kg and 10 mg/kg oral
  bioavailability in vivo, comparison at the same dosage: higher bioavailability in vivo than CS271011
[8]; 3mg/kg
  AUC(0-inf): 9470 ng·h/mL
  AUC(0-t): 9330 ng·h/mL
  Cmax: 1140 ng/mL
  Tmax: 2 h
  half-life: 3.8 h
  MRT last: 6.3 h
[8]; 10mg/kg
  AUC(0-inf): 35800 ng·h/mL
  AUC(0-t): 35600 ng·h/mL
  Cmax: 4870 ng/mL
  Tmax: 2 h
  half-life: 3 h
  MRT last: 5.8 h
